# Assays:
# [1] = test system: Human immunodeficiency virus 1; assay: Antiviral activity against HIV1 NL4-3 harboring reverse transcriptase L100I, K103Q, H221H/Y mutant infected in human SupT1 cells derived from 11 viral passages with efavirenz assessed as inhibition of viral replication after 21 days relative to drug sensitive HIV1 NL4-3; format: functional, SUP-T1
# [2] = test system: Human immunodeficiency virus 1; assay: Antiviral activity against HIV1 NL4-3 harboring reverse transcriptase V108I, E138K, F227F/L mutant infected in human SupT1 cells derived from 11 viral passages with lersivirine assessed as inhibition of viral replication after 21 days relative to drug sensitive HIV1 NL4-3; format: functional, SUP-T1
# [3] = test system: Human immunodeficiency virus 1; assay: Antiviral activity against HIV1 NL4-3 harboring reverse transcriptase V108I, H221Y, F227F/L, M230M/I mutant infected in human SupT1 cells derived from 11 viral passages with lersivirine assessed as inhibition of viral replication after 21 days relative to drug sensitive HIV1 NL4-3; format: functional, SUP-T1
# [4] = test system: Human immunodeficiency virus 1; assay: Antiviral activity against HIV1 NL4-3 infected in human SupT1 cells derived from 11 viral passages assessed as inhibition of viral replication after 21 days relative to drug sensitive HIV1 NL4-3; format: functional, SUP-T1
# [5] = test system: Human immunodeficiency virus 1; assay: Antiviral activity against HIV1 NL4-3 harboring reverse transcriptase V108I, E138K mutant infected in human SupT1 cells derived from 9 viral passages with lersivirine assessed as inhibition of viral replication after 21 days relative to drug sensitive HIV1 NL4-3; format: functional, SUP-T1
# [6] = test system: Human immunodeficiency virus 1; assay: Antiviral activity against HIV1 NL4-3 infected in human MT2 cells assessed as inhibition of virus-induced cell death at 0.5 multiplicities of infection after 6 days; format: functional, organism-based; conditions: Human immunodeficiency virus 1, NL4-3, MT2, 144 h
smiles,measurement,setting,value
Cc1cn([C@H]2C[C@H](N=[N+]=[N-])[C@@H](CO)O2)c(=O)[nH]c1=O [ZIDOVUDINE],fold change (FC),[1],0.1
same,fold change (FC),[2],0.6
same,fold change (FC),[3],0.1
same,fold change (FC),[4],0.2
same,fold change (FC),[5],0.4
CC(C)(C)NC(=O)[C@@H]1CN(Cc2cccnc2)CCN1C[C@@H](O)C[C@@H](Cc1ccccc1)C(=O)N[C@H]1c2ccccc2C[C@H]1O,EC50,[6],0.5 nM
Cc1cc(C#N)cc(C)c1Oc1nc(Nc2ccc(C#N)cc2)nc(N)c1Br [ETRAVIRINE],EC50,[6],0.5 nM
C=C(C)[C@@H]1CC[C@]2(C(=O)O)CC[C@]3(C)[C@H](CC[C@@H]4[C@@]5(C)CC[C@H](OC(=O)CC(C)(C)C(=O)O)C(C)(C)[C@@H]5CC[C@]43C)[C@@H]12 [BEVIRIMAT],EC50,[6],0.5 nM
CC(C)Nc1cccnc1N1CCN(C(=O)c2cc3cc(NS(C)(=O)=O)ccc3[nH]2)CC1 [DELAVIRDINE],fold change (FC),[1],16.4
same,fold change (FC),[2],1.8
same,fold change (FC),[3],0.2
same,fold change (FC),[4],0.3
same,fold change (FC),[5],1.5
Cc1ccnc2c1NC(=O)c1cccnc1N2C1CC1 [NEVIRAPINE],fold change (FC),[1],1
same,fold change (FC),[2],12.2
same,fold change (FC),[3],6.4
same,fold change (FC),[4],0.2
same,fold change (FC),[5],0.9
